# In patent US20240166630A1, “INDOLE DERIVATIVES AS SEROTONERGIC AGENTS USEFUL FOR THE TREATMENT OF DISORDERS RELATED THERETO” (Mindset Pharma Inc., priority 2021, published 2024):
# Several values for one entry are separate records, joined by “and”; a condition that tells them apart may be missing. Equal values may be shown once. Read-outs that look alike come from different tables or passages of the source.
# Assays:
# human 5-HT2A = human 5-HT2A (Homo sapiens, UniProt P28223); assay: Radioligand binding assay on human 5-HT2A receptor ([3H]-ketanserin)
# human 5-HT2A, sequence (P28223 whole entry): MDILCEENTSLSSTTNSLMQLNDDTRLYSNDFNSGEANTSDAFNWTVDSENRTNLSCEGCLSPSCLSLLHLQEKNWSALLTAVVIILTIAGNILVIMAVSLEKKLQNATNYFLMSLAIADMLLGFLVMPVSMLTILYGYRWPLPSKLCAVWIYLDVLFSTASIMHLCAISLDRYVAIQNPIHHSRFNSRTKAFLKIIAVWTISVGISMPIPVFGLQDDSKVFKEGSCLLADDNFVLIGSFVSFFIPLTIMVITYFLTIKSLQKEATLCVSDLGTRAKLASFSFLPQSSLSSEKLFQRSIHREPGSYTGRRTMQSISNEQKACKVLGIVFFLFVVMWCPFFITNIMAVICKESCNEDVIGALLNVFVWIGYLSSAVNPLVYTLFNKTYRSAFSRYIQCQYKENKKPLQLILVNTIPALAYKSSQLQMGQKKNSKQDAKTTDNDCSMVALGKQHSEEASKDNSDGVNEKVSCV
# Experimental: i. The assay buffer was prepared following the table below;
# iii. Prepared (v/v) DMSO as follows: a. […] The plates were sealed and incubated at 4° C. for 3 hrs;
# iv. Preparation of assay plates: a.
# vi. The plates were sealed and incubated at 27° C. for 90 min.
# [1] = Liver microsomes stability with NADPH, human
# Experimental: The objective of this study was to estimate in vitro metabolic stability of representative compounds of the application in pooled human and male mouse liver microsomes. The concentrations of parent compounds in reaction systems were evaluated by LC-MS/MS for estimating the stability in pooled human and male mouse liver microsomes. The in vitro intrinsic clearances of test compounds were determined as well.
# A master solution in the “Incubation Plate” containing phosphate buffer, ultra-pure H2O, MgCl2 solution and liver microsomes was made according to Table 3. The mixture was pre-warmed at 37° C. water bath for 5 minutes.
# 40 μL of 10 mM NADPH solution was added to each well. The final concentration of NADPH was 1 mM. The negative control samples were prepared by replacing NADPH with 40 μL of ultra-pure H2O. Samples were prepared in duplicate. Negative controls were prepared in singlet.
# The reaction was started with the addition of 4 μL of 200 μM test compounds or control compounds to each master solution to get the final concentration of 2 μM. This study was performed in duplicate.
# Aliquots of 50 μL were taken from the reaction solution at 0, 15, 30, 45 and 60 minutes. The reaction solutions were stopped by the addition of 4 volumes of cold methanol with IS (100 nM alprazolam, 200 nM imipramine, 200 nM labetalol and 2 μM ketoprofen). Samples were centrifuged at 3,220 g for 40 minutes. Aliquot of 90 μL of the supernatant was mixed with 90 μL of ultra-pure H2O and then was used for LC-MS/MS analysis.
# LC/MS analysis was performed for all samples from this study using a Shimadzu liquid chromatograph separation system equipped with degasser DGU-20A5R; solvent delivery unit LC-30AD; system controller SIL-30AC; column oven CTO-30A; CTC Analytics HTC PAL System; Mass spectrometric analysis was performed using an Triple Quad™ 5500 instrument.
# All calculations were carried out using Microsoft Excel. Peak area ratios of test compound to internal standard (listed in the below table) were determined from extracted ion chromatograms.
# All calculations were carried out using Microsoft Excel. Peak areas were determined from extracted ion chromatograms. The slope value, k, was determined by linear regression of the natural logarithm of the remaining percentage of the parent drug vs. incubation time curve.
# The in vitro half-life (in vitro t1/2) was determined from the slope value:
# Conversion of the in vitro t1/2 (min) into the in vitro intrinsic clearance (in vitro CLint, in μL/min/mg proteins) was done using the following equation (mean of duplicate determinations): […]
# [2] = In vivo pharmacokinetics in male C57BL/6 mice; parameters: species or system mouse
# Experimental: Animals: Male C57BL/6 mice (25-30 g) from Charles River Labs were acclimatized for a minimum of 5 days prior to dosing. Body weights were recorded on the day of dosing.
# Food restriction: Animals dosed p.o. were deprived of food overnight and fed ˜2 h following dosing.
# Dosing: Formulations were administered intravenously (i.v.) via the tail vein or orally (p.o.) by gavage with disposable feeding needles.
# Sample collection: Serial blood samples was collected via tail snip. Terminal blood samples was collected under isoflurane anesthesia by cardiac puncture.
# Sample processing/storage: All blood samples were transferred into K2EDTA tubes on wet ice and centrifuged within 5 min (3200× g for 5 min at 4° C.) to obtain plasma. Plasma was stored at −80° C. until analysis.
# Instrumentation: AB Sciex QTRAP 4000 or 6500 MS/MS system equipped with an LC system with a binary pump, a solvent degasser, a thermostatted column compartment and a multiplate autosampler.
# 5. PK Analysis • i. Analysis software: Phoenix® WinNonlin® 8.2 (Pharsight, Certara, Mountainview, CA) • ii. Analysis methods: non-compartmental analysis, linear up/log down trapezoidal rule • iii. PK parameters: C0, t1/2, AUC0-tlast. AUC0-∞, CL, Vss, MRT, tmax(po), Cmax(po), F, as appropriate
# [3] = Liver microsomes stability with NADPH, rat
# [4] = 9.92 mg/kg i.v., individual animals M10-M12
# [5] = 9.92 mg/kg p.o., individual animals M13-M15
# [6] = 9.92 mg/kg s.c., individual animals M16-M18
structure (smiles),measurement,setting,value
"[2H]C([2H])(c1c[nH]c2ccccc12)[C@H]1CCCN1C([2H])([2H])[2H] [I-B-1, (R)-3-((1-(methyl-d3)pyrrolidin-2-yl)methyl-d2)-1H-indole]",IC50,human 5-HT2A,< 500 nM
same,Remaining Percentage (%) after 60 min Human,"[1]; human liver microsomes, with NADPH, 2 μM",82.74%
same,half-life at 2 μM,"[1]; human, microsomes",3.66 h
same,microsomal CLint at 2 μM,"[1]; human, microsomes",6.32 µL/min/mg
same,AUC0-tlast,[2]; [4],3708 ng·h/mL and 4440 ng·h/mL
same,AUC(0-inf),[2]; [4],3709 ng·h/mL and 4441 ng·h/mL
same,Apparent t1/2,[2]; [4],2.16 h and 2.05 h
same,C0,[2]; [4],3473 ng/mL and 3356 ng/mL
same,CL,[2]; [4],44.58 mL/min/kg and 37.23 mL/min/kg
same,MRT0-inf,[2]; [4],2.46 h and 2.57 h
same,Vss,[2]; [4],6.59 L/kg and 5.751 L/kg
same,F,"[2]; 9.92 mg/kg p.o., Mean ± SD",58.2 ± 18.4%
same,AUC0-tlast,[2]; [5],2782 ng·h/mL and 2260 ng·h/mL
same,AUC(0-inf),[2]; [5],3099 ng·h/mL
same,Cmax,[2]; [5],516 ng/mL and 342 ng/mL
same,MRT0-inf,[2]; [5],8.54 h
same,tmax,[2]; [5],1.00 h and 0.500 h
same,F,"[2]; 9.92 mg/kg p.o., individual animals M13-M15, for M15 AUC0-tlast used",40.8% and 77.5% and 56.5%
same,Apparent t1/2,"[2]; 9.92 mg/kg p.o., individual animals, estimate may not be accurate",9.46 h
same,F,"[2]; 9.92 mg/kg s.c., Mean ± SD",67.9 ± 6.24%
same,AUC0-tlast,[2]; [6],2833 ng·h/mL and 2429 ng·h/mL
same,AUC(0-inf),[2]; [6],2834 ng·h/mL and 2431 ng·h/mL
same,Apparent t1/2,[2]; [6],2.24 h and 2.56 h
same,Cmax,[2]; [6],1090 ng/mL and 950 ng/mL
same,F,[2]; [6],72.2% and 70.9% and 60.8%
same,MRT0-inf,[2]; [6],2.58 h
same,tmax,[2]; [6],0.500 h
same,clearance,"[2]; male, C57BL/6, mouse, plasma, iv, 9.92 mg/kg, 9.92 mg/kg i.v., Mean ± SD",41.7 mL/min/kg
same,AUC(0-inf),"[2]; male, C57BL/6, mouse, plasma, iv, 9.92 mg/kg, 9.92 mg/kg i.v., Mean ± SD, read-out: AUC0-inf",4000 ± 389 ng·h/mL
same,AUC(0-t),"[2]; male, C57BL/6, mouse, plasma, iv, 9.92 mg/kg, 9.92 mg/kg i.v., Mean ± SD, read-out: AUC0-tlast",4000 ± 389 ng·h/mL
same,half-life,"[2]; male, C57BL/6, mouse, plasma, iv, 9.92 mg/kg, 9.92 mg/kg i.v., Mean ± SD, read-out: Apparent t1/2 (converted)",2.17 ± 0.127 h
same,C0,"[2]; male, C57BL/6, mouse, plasma, iv, 9.92 mg/kg, 9.92 mg/kg i.v., Mean ± SD, read-out: C0",3910 ± 868 ng/mL
same,MRT inf,"[2]; male, C57BL/6, mouse, plasma, iv, 9.92 mg/kg, 9.92 mg/kg i.v., Mean ± SD, read-out: MRT0-inf",2.43 ± 0.16 h
same,Vd,"[2]; male, C57BL/6, mouse, plasma, iv, 9.92 mg/kg, 9.92 mg/kg i.v., Mean ± SD, read-out: Vss",6.06 ± 0.464 L/kg
same,clearance,"[2]; male, C57BL/6, mouse, plasma, iv, 9.92 mg/kg, 9.92 mg/kg i.v., individual animals M10-M12",43 mL/min/kg
same,AUC(0-inf),"[2]; male, C57BL/6, mouse, plasma, iv, 9.92 mg/kg, 9.92 mg/kg i.v., individual animals M10-M12, read-out: AUC0-inf",3850 ng·h/mL
same,AUC(0-t),"[2]; male, C57BL/6, mouse, plasma, iv, 9.92 mg/kg, 9.92 mg/kg i.v., individual animals M10-M12, read-out: AUC0-tlast",3850 ng·h/mL
same,half-life,"[2]; male, C57BL/6, mouse, plasma, iv, 9.92 mg/kg, 9.92 mg/kg i.v., individual animals M10-M12, read-out: Apparent t1/2 (converted)",2.3 h
same,C0,"[2]; male, C57BL/6, mouse, plasma, iv, 9.92 mg/kg, 9.92 mg/kg i.v., individual animals M10-M12, read-out: C0",4910 ng/mL
same,MRT inf,"[2]; male, C57BL/6, mouse, plasma, iv, 9.92 mg/kg, 9.92 mg/kg i.v., individual animals M10-M12, read-out: MRT0-inf",2.26 h
same,Vd,"[2]; male, C57BL/6, mouse, plasma, iv, 9.92 mg/kg, 9.92 mg/kg i.v., individual animals M10-M12, read-out: Vss",5.83 L/kg
same,AUC(0-t),"[2]; male, C57BL/6, mouse, plasma, po, 9.92 mg/kg, 9.92 mg/kg p.o., Mean ± SD, read-out: AUC0-tlast",2170 ± 665 ng·h/mL
same,Cmax,"[2]; male, C57BL/6, mouse, plasma, po, 9.92 mg/kg, 9.92 mg/kg p.o., Mean ± SD, read-out: Cmax",389 ± 112 ng/mL
same,tmax,"[2]; male, C57BL/6, mouse, plasma, po, 9.92 mg/kg, 9.92 mg/kg p.o., Mean ± SD, read-out: tmax",0.25 h
same,AUC(0-inf),"[2]; male, C57BL/6, mouse, plasma, po, 9.92 mg/kg, 9.92 mg/kg p.o., individual animals M13-M15, read-out: AUC0-inf",1630 ng·h/mL
same,AUC(0-t),"[2]; male, C57BL/6, mouse, plasma, po, 9.92 mg/kg, 9.92 mg/kg p.o., individual animals M13-M15, read-out: AUC0-tlast",1460 ng·h/mL
same,Cmax,"[2]; male, C57BL/6, mouse, plasma, po, 9.92 mg/kg, 9.92 mg/kg p.o., individual animals M13-M15, read-out: Cmax",308 ng/mL
same,MRT inf,"[2]; male, C57BL/6, mouse, plasma, po, 9.92 mg/kg, 9.92 mg/kg p.o., individual animals M13-M15, read-out: MRT0-inf",8.91 h
same,half-life,"[2]; male, C57BL/6, mouse, plasma, po, 9.92 mg/kg, 9.92 mg/kg p.o., individual animals, estimate may not be accurate, read-out: Apparent t1/2 (converted)",9.66 h
same,AUC(0-inf),"[2]; male, C57BL/6, mouse, plasma, po, 9.92 mg/kg, 9.92 mg/kg p.o., mean (n = 2), read-out: AUC0-inf",2360 ng·h/mL
same,half-life,"[2]; male, C57BL/6, mouse, plasma, po, 9.92 mg/kg, 9.92 mg/kg p.o., mean (n = 2), read-out: Apparent t1/2 (converted)",9.56 h
same,MRT inf,"[2]; male, C57BL/6, mouse, plasma, po, 9.92 mg/kg, 9.92 mg/kg p.o., mean (n = 2), read-out: MRT0-inf",8.72 h
same,AUC(0-inf),"[2]; male, C57BL/6, mouse, plasma, sc, 9.92 mg/kg, 9.92 mg/kg s.c., Mean ± SD, read-out: AUC0-inf",2720 ± 249 ng·h/mL
same,AUC(0-t),"[2]; male, C57BL/6, mouse, plasma, sc, 9.92 mg/kg, 9.92 mg/kg s.c., Mean ± SD, read-out: AUC0-tlast",2720 ± 250 ng·h/mL
same,half-life,"[2]; male, C57BL/6, mouse, plasma, sc, 9.92 mg/kg, 9.92 mg/kg s.c., Mean ± SD, read-out: Apparent t1/2 (converted)",2.3 ± 0.232 h
same,Cmax,"[2]; male, C57BL/6, mouse, plasma, sc, 9.92 mg/kg, 9.92 mg/kg s.c., Mean ± SD, read-out: Cmax",1240 ± 387 ng/mL
same,MRT inf,"[2]; male, C57BL/6, mouse, plasma, sc, 9.92 mg/kg, 9.92 mg/kg s.c., Mean ± SD, read-out: MRT0-inf",2.6 ± 0.186 h
same,tmax,"[2]; male, C57BL/6, mouse, plasma, sc, 9.92 mg/kg, 9.92 mg/kg s.c., Mean ± SD, read-out: tmax",0.25 h
same,AUC(0-inf),"[2]; male, C57BL/6, mouse, plasma, sc, 9.92 mg/kg, 9.92 mg/kg s.c., individual animals M16-M18, read-out: AUC0-inf",2890 ng·h/mL
same,AUC(0-t),"[2]; male, C57BL/6, mouse, plasma, sc, 9.92 mg/kg, 9.92 mg/kg s.c., individual animals M16-M18, read-out: AUC0-tlast",2880 ng·h/mL
same,half-life,"[2]; male, C57BL/6, mouse, plasma, sc, 9.92 mg/kg, 9.92 mg/kg s.c., individual animals M16-M18, read-out: Apparent t1/2 (converted)",2.1 h
same,Cmax,"[2]; male, C57BL/6, mouse, plasma, sc, 9.92 mg/kg, 9.92 mg/kg s.c., individual animals M16-M18, read-out: Cmax",1680 ng/mL
same,MRT inf,"[2]; male, C57BL/6, mouse, plasma, sc, 9.92 mg/kg, 9.92 mg/kg s.c., individual animals M16-M18, read-out: MRT0-inf",2.8 h
same,tmax,"[2]; male, C57BL/6, mouse, plasma, sc, 9.92 mg/kg, 9.92 mg/kg s.c., individual animals M16-M18, read-out: tmax",0.25 h
same,Remaining Percentage (%) after 60 min Rat,"[3]; rat liver microsomes, with NADPH, 2 μM",32.40%
same,half-life at 2 μM,"[3]; rat, microsomes",0.615 h
same,microsomal CLint at 2 μM,"[3]; rat, microsomes",37.6 µL/min/mg
